Some results are limits rather than exact numbers.

One experiment concerns the target T1, USP8 (Homo sapiens, UniProt P40818).
T1 sequence (P40818 1-1118): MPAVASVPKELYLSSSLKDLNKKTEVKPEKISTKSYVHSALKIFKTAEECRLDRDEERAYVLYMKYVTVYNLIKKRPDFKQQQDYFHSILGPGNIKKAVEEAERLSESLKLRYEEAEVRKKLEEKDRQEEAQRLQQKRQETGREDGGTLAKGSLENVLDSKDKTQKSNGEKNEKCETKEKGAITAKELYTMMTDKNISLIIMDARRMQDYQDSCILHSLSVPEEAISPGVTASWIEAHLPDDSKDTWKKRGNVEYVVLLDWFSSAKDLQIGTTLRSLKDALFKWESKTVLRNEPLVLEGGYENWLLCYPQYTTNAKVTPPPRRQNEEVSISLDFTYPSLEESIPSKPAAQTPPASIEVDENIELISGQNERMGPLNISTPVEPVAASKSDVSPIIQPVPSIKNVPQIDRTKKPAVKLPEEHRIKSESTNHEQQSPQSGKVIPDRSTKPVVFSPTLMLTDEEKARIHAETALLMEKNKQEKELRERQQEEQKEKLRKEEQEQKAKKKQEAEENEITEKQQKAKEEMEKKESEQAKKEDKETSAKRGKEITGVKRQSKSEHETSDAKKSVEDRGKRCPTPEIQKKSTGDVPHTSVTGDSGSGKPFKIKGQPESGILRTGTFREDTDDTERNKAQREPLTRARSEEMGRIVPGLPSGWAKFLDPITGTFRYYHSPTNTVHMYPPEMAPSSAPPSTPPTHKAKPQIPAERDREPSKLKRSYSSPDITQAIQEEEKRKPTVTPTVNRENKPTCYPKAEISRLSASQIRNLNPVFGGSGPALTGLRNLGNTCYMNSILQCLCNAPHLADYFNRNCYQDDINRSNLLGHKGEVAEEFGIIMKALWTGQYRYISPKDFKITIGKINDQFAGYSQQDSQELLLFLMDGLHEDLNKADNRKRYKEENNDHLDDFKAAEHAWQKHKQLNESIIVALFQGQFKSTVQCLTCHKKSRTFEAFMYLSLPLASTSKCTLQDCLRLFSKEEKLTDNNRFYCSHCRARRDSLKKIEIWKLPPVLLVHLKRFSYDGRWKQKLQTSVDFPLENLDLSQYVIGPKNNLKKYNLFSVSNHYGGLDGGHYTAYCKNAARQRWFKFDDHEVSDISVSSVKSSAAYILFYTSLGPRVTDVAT
Briefly: GST-Ub52-Flag HTRF deubiquitinating enzyme assay, USP8. For orientation: In TR-FRET formats the signal depends on donor and acceptor labels being close together.

The target in another experiment is USP7 (Homo sapiens, UniProt Q93009). Briefly: GST-Ub52-Flag HTRF deubiquitinating enzyme assay, USP7. The settings on record: GST-Ub52-Flag substrate, USP7 200 pM. It counts as biochemical. More on the design: Full-length wild-type human USP7 and its catalytic mutant; His tag (pFastBac-HT vector) (N); made in house; host or cells: Spodoptera frugiperda Sf9 (or High Five) insect cells, baculovirus. How it is done:
Bacmid DNA was prepared by an alkaline lysis procedure. The integrity of the bacmid minipreps and their orientation were checked by PCR, using generic and specific primers. Sf9 insect cells were cultured in InsectXpress medium (Cambrex) at 27° C. and transfected with the corresponding bacmid, using GeneShuttle 40 (Q-BIOgen). Viruses were recovered in the supernatant 72 h after transfection. Viruses were amplified by infecting insect cells (Sf9 or High Five cells; invitrogen) in 50 ml InsectXpress medium in a 150 cm^2 cell culture flask with 500 μl of the supernatant from transfected Sf9 cells. Following the second round of amplification, infected cells were recovered by rapid SDS lysis, boiled for 5 min at 100° C., sonicated briefly and centrifuged for 20 min at 14,000 g.
Flow Through was recovered.

Chain of USP7 (Q93009 whole entry): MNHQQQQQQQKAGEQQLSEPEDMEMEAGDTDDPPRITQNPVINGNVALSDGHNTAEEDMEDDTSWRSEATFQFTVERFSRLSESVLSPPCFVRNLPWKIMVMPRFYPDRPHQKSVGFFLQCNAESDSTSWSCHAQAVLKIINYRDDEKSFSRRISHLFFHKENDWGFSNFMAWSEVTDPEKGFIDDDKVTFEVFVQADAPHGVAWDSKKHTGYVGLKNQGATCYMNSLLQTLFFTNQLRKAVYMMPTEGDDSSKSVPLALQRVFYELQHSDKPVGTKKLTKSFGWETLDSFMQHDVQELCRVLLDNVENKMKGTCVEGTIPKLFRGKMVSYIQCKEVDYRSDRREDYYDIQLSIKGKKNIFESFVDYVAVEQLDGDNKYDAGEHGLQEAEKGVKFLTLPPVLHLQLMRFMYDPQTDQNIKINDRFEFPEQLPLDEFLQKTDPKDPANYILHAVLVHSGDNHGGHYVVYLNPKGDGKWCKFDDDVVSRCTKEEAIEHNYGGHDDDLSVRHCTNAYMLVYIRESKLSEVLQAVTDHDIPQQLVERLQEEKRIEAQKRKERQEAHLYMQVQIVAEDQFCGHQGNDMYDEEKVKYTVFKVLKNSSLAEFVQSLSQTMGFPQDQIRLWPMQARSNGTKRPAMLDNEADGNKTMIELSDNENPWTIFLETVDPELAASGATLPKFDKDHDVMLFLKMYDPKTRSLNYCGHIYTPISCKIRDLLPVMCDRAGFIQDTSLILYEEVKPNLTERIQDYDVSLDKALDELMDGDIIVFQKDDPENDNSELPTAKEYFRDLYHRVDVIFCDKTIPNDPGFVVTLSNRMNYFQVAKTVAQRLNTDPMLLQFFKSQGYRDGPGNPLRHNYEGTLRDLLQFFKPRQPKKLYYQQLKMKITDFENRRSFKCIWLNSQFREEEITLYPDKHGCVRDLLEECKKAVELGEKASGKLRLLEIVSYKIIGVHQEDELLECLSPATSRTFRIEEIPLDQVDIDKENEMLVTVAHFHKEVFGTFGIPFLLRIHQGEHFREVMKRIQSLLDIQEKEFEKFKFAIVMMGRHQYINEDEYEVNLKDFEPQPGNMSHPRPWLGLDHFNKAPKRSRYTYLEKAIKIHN
Source text for USP8: The cDNA encoding USP8 was obtained by PCR amplification from placenta mRNA. USP8 cDNA was subcloned by PCR into a baculovirus expression vector (pFastBac-HT; Invitrogen). A cDNA encoding a mutated USP8 was generated by mutagenic PCR. […] The sequences were ascertained by sequencing of the entire open reading frame. Bacmids encoding USP8 were generated following DH10bac transposition. The corresponding bacmids were transfected into insect cells (Sf9). Viruses were recovered from culture supernatant and amplified twice. Insect cells (Sf9 or High Five; Invitrogen) were infected for 72 hours. […] Proteins were affinity purified on metal affinity resins (Talon Metal affinity resin; BD Biosciences). Bound materials were extensively washed in wash buffer (50 mM Sodium Phosphate pH 7.0; 300 mM NaCl; 10 mM imidazole; 0.5% Triton X-100; 10% glycerol) and eluted from the resin in 250 mM imidazole-containing wash buffer. Proteins were dialyzed in dialysis buffer (Tris HCl pH 7.6 20 mM; NaCl 200 mM; DTT 1 mM; EDTA 1 mM; 10% Glycerol).
A cDNA encoding the fusion protein between ubiquitin and the ribosomal protein L40 (ub52 or uba52 or ubiquitin-L40) was amplified from human RNA using a proprietary human placenta library. The cDNA was subcloned into a bacterial expression vector (pGEX-2T, GE Healthcare), including an additional flag tag at the carboxyl end of the encoded protein.
For production and purification of recombinant proteins, the plasmid pGEX-2T-Ub52-flag was transformed into E. coli BL21 (Stratagene), grown in LB medium supplemented with 100 mg/ml ampicillin (LB ampi) at 37° C. overnight and then diluted 1/100 in LB ampi. The cells were incubated at 37° C. until an A600=0.6-0.8 was reached. After induction with 0.1 mM isopropyl-β-D-thiogalactopyranoside (IPTG), the culture was incubated at 30° C. for 180 min.
Cells were harvested by centrifugation for 15 min at 7000×g at 4° C. Bacterial pellets were lysed in NETN (Tris HCl pH 8.0; EDTA 1 mM; NP40 0.5%; protease inhibitor cocktail, PMSF 1 mM) and briefly sonicated. Insoluble material was removed by centrifugation 30 min at 14000×g. […] Briefly, soluble fraction was incubated on Glutathione beads pre-equilibrated in NETN buffer+0.5% Milk for 120 min at 4° C. Flow Through was recovered. Beads were extensively washed: the last wash was performed in Tris HCl pH 7.6 20 mM; NaCl 100 mM; MgCl2 12 mM. Elutions were performed using 20 mM Reduced Glutathione in 50 mM Tris HCl pH 8.0, NaCl 120 mM. […] Elutions were dialysed over night at 4° C. in Tris HCl pH 7.6 20 mM; NaCl 50 mM; DTT 0.5 mM.
The use of GST-Ub52-Flag is based on the time-resolved measurement of fluorescence emitted by transfer in homogenous medium.
The assay is carried out on multiwell assay plates. The plates are analyzed on a PHERAstar fluorimeter (BMG) after an overnight incubation at 4° C.
The enzyme reaction is carried out by mixing GST-Ub52-flag solution with 5 μl of USP7 solution (200 pM final) or 5 μl of USP8 (400 pM final). This mixture is incubated for one hour at room temperature on a multiwell assay plate. […] The plate is read after an overnight incubation at 4° C. on a PHERAstar fluorimeter (BMG).
The decrease in the signal correlates with the increase in enzyme activity i.e. the cleavage of GST-Ub52-Flag substrate.
Data (mean values+/−standard deviation) were analyzed as % of control (no compound) and plotted as percentage versus the Log of the compound concentration using GraphPad (Prism).

For the molecule `O=C(COc1cccc(F)c1)N1CCC(O)(Cn2cnc3ccccc3c2=O)CC1` [Example 8, 3-({1-[2-(3-fluorophenoxy)acetyl]-4-hydroxypiperidin-4-yl}methyl)-3,4-dihydroquinazolin-4-one], the figures for the IC50 on USP8 and against USP7 were above 200 µM and 224 µM, respectively.
